From patent EP2016954A1, “Antibodies against 4-(methylnitrosamino)-1-(3-pyridyl)-1-butanone and metabolites thereof” (Muller, Claude P., priority 2007, dated 2009)
Where “and” joins values, the source holds several entries; their conditions need not be identical. Equal values may be shown once.

How the values were obtained:
[1] = system: anti-[NNK-C2]-DT sera; assay: Competition ELISA with mouse sera on coated [NNK-C2]-OVA; type: binding, BALB/c mice; conditions: for specific reactivity of mouse sera: competition ELISA; for IC50: competitor inhibiting binding of serum antibodies to coated [NNK-C2]-OVA
Method: Specific antibodies were monitored after each injection of [NNK-C2]-DT. […] NNK-specific antibodies were monitored by competition ELISA by adding increasing concentrations of NNK as competitors (0-256µM) (Figure 1) to measure their capacity to inhibit the binding of serum antibodies to coated [NNK-C2]-OVA.
(§1) In all competition experiments, optimal antigen coating conditions and serum dilutions were determined by direct ELISA. 384-well plates were coated with the minimal amount of antigen required for maximal signal. Sera or mAb supernatants were diluted to obtain 70% binding and a signal of 1.0 to 1.5 O.D. at 0% competition (highest signal). The competitors (NNK and its metabolites (NNAL, NNK-N-ox, NNAL-N-ox, keto acid (1-(3-pyridyl)-1-butanone-4-carboxylic acid), PBCA (1-(3-pyridyl)-1-butanol-4-carboxylic acid), PB (1-(3-pyridyl)-1-butanediol) and HPB (4-hydroxy-1-(3-pyridyl)-1-butanone)), from Toronto Research Chemicals Inc., Canada and Acros Organics, Geel, Belgium) were resuspended in 100% dimethylsulfoxide and stock solutions of […] were frozen at -80°C. Competitors were mixed 1:1 with sera or mAb supernatants to final concentrations of 0 to 512 µM for mAbs or 0 to 1024 µM for serum. Zero (highest signal) and 100% competition (background signal) were determined using no or NNK-C2 as competitor. The difference between these two values corresponds to the dynamic range of the assay. For each competitor concentration, the 50% of inhibitory concentration, IC50 was calculated. Experiments were independently repeated three times and data were analyzed used SigmaStat software. Net OD was calculated by subtraction of the relevant background as described in each figure.

[2] = system: P9D5 and P7H3; assay: Competition ELISA, results stated jointly for both mAbs; type: binding, mouse; conditions: for binding of the antibodies: N-oxidation of the pyridyl ring, result in words; for IC50: range over P9D5 and P7H3
Method: as §1

[3] = system: P9D5; assay: Competition ELISA with mAb P9D5 on immobilized [NNK-C2]-OVA; type: binding, mouse; conditions: for IC50: competitor inhibiting binding of P9D5 to [NNK-C2]-OVA; for IC50 compared with the one of NNK: P9D5, result in words; for inhibition of P9D5 binding: competition ELISA, result in words
Method: as §1

[4] = system: NCI-H82 cells; assay: NNK-induced proliferation of NCI-H82 cells (ATP bioluminescence); type: cell-based, human; conditions: NNK 25 nM, 24h
Method: NCI-H82 cells were obtained from European Collection of Cell Cultures and maintained in RPMI 1640 with 2 mM L-glutamine (Biowhittaker, Verviers, BE) with the above supplements ("NCI-H82 medium"). Every 2 or 3 days cell medium was renewed. Cells were subcultured once a week. All cultures were mycoplasma-free.
For proliferation experiments, NCI-H82 cells were seeded at a concentration of about 8 x 10^3 cells/well in 200 µl of NCI-H82 medium on collagen type I coated 96-well plates (Greiner Bio-one, Wemmel, BE) and incubated at 37°C and 10% CO2. Proliferation assays were performed at 10% CO2 since CO2 seems to act as a potent messenger molecule for SCLC cells, enhancing the susceptibility of this cancer cell to a host of autocrine and paracrine growth-stimulating signals. After 18h, medium was replaced by fresh NCI-H82 medium containing only 0.15% heat-inactivated fetal bovine serum ("low serum medium") 6h prior NNK treatment. Stock solutions of NNK were prepared in dimethyl sulfoxide. […] Cell proliferation was assessed 24h after treatment using the ViaLightTM HS kit according to the manufacturer's instructions (Cambrex Bioscience, Verviers, BE). Bioluminescence of ATP present in metabolically active cells, was measured on a GENios Plus fluorescence plate reader (Tecan, Mechelen, BE). […]

[5] = system: P7H3; assay: Competition ELISA with mAb P7H3; type: binding, mouse; conditions: for IC50: competitor inhibiting binding of P7H3; for inhibition of P7H3 binding: competition ELISA, result in words
Method: as §1

Row | SMILES | IC50 [3] | IC50 [2] [µM] | IC50 [1] [µM] | inhibition of P7H3 binding [5] | further results
1 | CN(CCCC(=O)c1ccc[n+]([O-])c1)N=O [NNK-N-Ox, 4-(methylnitrosamino)-1-(3-pyridyl-N-oxide)-1-butanone] |  |  |  |  | specific reactivity of mouse sera [1]: essentially no specific reactivity was detected; binding of the antibodies [2]: totally obliterates binding
2 | NCCN(CCCC(=O)c1cccnc1)N=O [NNK-C2, 4-[2-amino-ethyl(nitrosamino)]-1-pyridine-3-yl-butane-1-one] | 3.7 µM | 4.4 to 12 |  |  | 
3 | CN(CCCC(=O)c1cccnc1)N=O [NNK, 4-(methylnitrosamino)-1-(3-pyridyl)-1-butanone] | 63 µM and 80 µM | 80 to 160 | 26 |  | increase of cell number in comparison to unstimulated control cells [4]: 2 to 3 fold; IC50 [5]: 160 µM
4 | CN(CCCC(O)c1ccc[n+]([O-])c1)N=O (centres unmarked) [NNAL-N-Ox, 4-(methylnitrosamino)-1-(3-pyridyl-N-oxide)-1-butanol] |  |  |  |  | specific reactivity of mouse sera [1]: essentially no specific reactivity was detected; binding of the antibodies [2]: totally obliterates binding
5 | CN(CCCC(O)c1cccnc1)N=O (centres unmarked) [NNAL, 4-(methylnitrosamino)-1-(3-pyridyl)-1-butanol] | 20 µM | 29 to 93 | 80 |  | 
6 | OCCCC(O)c1cccnc1 (centres unmarked) [PB, 1-(3-pyridyl)-1-butanediol] | 72 µM |  | 230 | moderately inhibited | 
7 | O=C(CCCO)c1cccnc1 [HPB, 4-hydroxy-1-(3-pyridyl)-1-butanone] | 50 µM |  | 80 | moderately inhibited | 
8 | O=C(O)c1ccc[n+]([O-])c1 [NIA-N-Ox, nicotinic acid-N-oxide] |  |  |  |  | binding of the antibodies [2]: totally obliterates binding
9 | Cc1cccnc1 [3-picoline] | 400 µM |  |  |  | IC50 [5]: 320 µM
10 | O=C(O)CCC(=O)c1cccnc1 [keto acid, 1-(3-pyridyl)-1-butanone-4 carboxylic acid] |  |  |  | moderately inhibited | IC50 compared with the one of NNK [3]: significant increase of the IC50; inhibition of P9D5 binding [3]: moderate inhibition
11 | O=C(O)CCC(O)c1cccnc1 (centres unmarked) [PBCA, 1-(3-pyridyl)-1-butanol-4 carboxylic acid] |  |  |  | moderately inhibited | IC50 compared with the one of NNK [3]: significant increase of the IC50; inhibition of P9D5 binding [3]: moderate inhibition
12 | CCOC(=O)c1cccnc1 [ENAT, ethylnicotinate] | 49 µM | 49 to 80 |  |  | IC50 [5]: 80 µM
